Five compounds from paper PMC5997364, “OG716: Designing a fit-for-purpose lantibiotic for the treatment of Clostridium difficile infections” (PLoS ONE, 2018) can be followed below.

The conditions of data set [1]: 1.0 mg/mL in water.
Experimental: Five aliquots of each compound were prepared by dissolving them to 1.0 mg/mL in HPLC grade water (Fisher Scientific, USA). A total of 2 aliquots of the solution were placed in a 37°C stability chamber, and 2 aliquots were placed in a 50°C chamber. Samples were collected on days 0, 2 and 7, centrifuged at 12,000 x g for 5 min, and the supernatants were transferred to a fresh tube. Each sample was diluted 1:4 with 0.05% trifluoroacetic acid (TFA) and the purity and quantity were analyzed by HPLC as described above.
The test system of a further data set is C. difficile. Put plainly: microbe, parasite or virus in culture. The format is cell-based, Clostridium difficile. As for the experimental part: MIC testing for C. difficile was performed by Eurofins Panlabs Taiwan LTD based on modifications from the CLSI M11-A8 broth dilution method for Bacteroides fragilis susceptibility testing. Briefly, Reinforced Clostridial Medium (RCM) was pre-reduced by over-night incubation in an anaerobic chamber (80% N2, 10% CO2, and 10% H2) prior to use. MU1140 and variants were dissolved in 100% DMSO, diluted by 2-fold serial dilution in 100% DMSO, for a total of 11 concentrations. A 4 μL aliquot of each dilution was added to 96 μL RCM in wells of a 96 well plate using a Biomek FX instrument (Beckman Coulter, USA), followed by the addition of C. difficile suspension, in RCM, 100 μL/well. The final bacterial count was 2 x 10^5 to 1 x 10^6 colony forming units/mL, in 200 μL per assay well. […] Assay plates were incubated at 35°C for 46 to 48 hr in the anaerobic chamber (A35 Anaerobic Workstation, Don Whitley, UK). Following incubation, test plates were visually examined and each well was scored for growth then the MIC was recorded as the lowest concentration that results in complete inhibition of growth. Each test substance was evaluated in duplicate. Vehicle-control and vancomycin were used as blank and positive controls, respectively. The MIC values of the vancomycin controls were consistent with the historical data against test strains (data not shown).

The conditions of data set [2]: Solubility 5% D-mannitol, 5% D-mannitol in water, visual assessment.
Experimental: To that end, approximately 10 mg of each compound was weighed on a high-precision balance and dispensed into a 1.5 mL microfuge tube.

As usually defined, the solubility is how much of the substance goes into solution per volume. Read a high solubility as much dissolved substance.

Each structure is given as a SMILES string. In brackets after ≈: the same amount, converted by molar mass. Several values for one entry are separate records, joined by “and”; a condition that tells them apart may be missing. Equal values may be shown once. Read-outs that look alike come from different tables or passages of the source.
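Wherever Forced degradation Δ Conc is given: purity and concentration determined by HPLC on aqueous solutions kept in a stability chamber, with samples analyzed at day 0 and after incubation.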
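Wherever Forced degradation Δ Purity is given: purity and concentration determined by HPLC on aqueous solutions kept in a stability chamber, with samples analyzed at day 0 and after incubation.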

Regarding `C=C1NC(=O)[C@H](Cc2c[nH]c3ccccc23)NC(=O)[C@H](NC(=O)[C@H](CCCCN)NC(=O)[C@@H](N)CC(C)C)CSC[C@@H](C(=O)N[C@H]2C(=O)N3CCC[C@H]3C(=O)NCC(=O)N[C@H](C(=O)N[C@@H](C)C(=O)N[C@@H](C)C(=O)N/C(=C\C)C(=O)NCC(=O)N[C@@H]3CSC[C@@H]4NC(=O)[C@H](Cc5ccc(O)cc5)NC(=O)[C@@H](CS/C=C\NC4=O)NC(=O)[C@H](CC(N)=O)NC(=O)[C@H](Cc4ccccc4)NC3=O)CS[C@H]2C)NC(=O)[C@H](CC(C)C)NC1=O` [OG713], in data set [1] (2 Days at 37°C), the “Forced degradation Δ Conc” value was -11.9% and -12%; the “Forced degradation Δ Purity” value was -0.06%. Also, in data set [1] (2 Days at +50°C), the “Forced degradation Δ Conc” value was -16.9% and -17%; the “Forced degradation Δ Purity” value was -1.51%. Also, in data set [1] (7 Days at 37°C), the “Forced degradation Δ Conc” value was -8.8% and -9%; the “Forced degradation Δ Purity” value was -0.56%. In data set [1] (7 Days at +50°C), the “Forced degradation Δ Conc” value was -41% and the “Forced degradation Δ Purity” value is reported as -6.98%. In the data set with C. difficile, the “MIC 50” value was 0.5 µg/mL (≈ 0.233 µM), the “MIC 90” value was determined as 0.5 µg/mL (≈ 0.233 µM), the “MIC Mode” value was determined as 0.5 µg/mL (≈ 0.233 µM) and the “MIC Range” value lay within 0.25 to 0.5 µg/mL. In the data set on C. difficile, this compound showed a Minimum Inhibitory Concentration C. difficile 103-1 of 0.25 µg/mL, a Minimum Inhibitory Concentration C. difficile 107-1 of 0.5 µg/mL, a Minimum Inhibitory Concentration C. difficile ATCC 9689 of 0.5 µg/mL and a Minimum Inhibitory Concentration C. difficile ATCC 43597 of 0.5 µg/mL. For the same compound, in the data set with C. difficile, the Minimum Inhibitory Concentration C. difficile ATCC BAA-1805 is 0.25 µg/mL, the Minimum Inhibitory Concentration C. difficile ATCC BAA-1808 turned out to be 0.5 µg/mL, the Minimum Inhibitory Concentration C. difficile ATCC BAA-1874 amounted to 0.5 µg/mL and the Minimum Inhibitory Concentration C. difficile ATCC BAA-1875 came out at 0.5 µg/mL.
On to `C=C1NC(=O)[C@H](Cc2c[nH]c3ccccc23)NC(=O)[C@H](NC(=O)[C@H](CCCCN)NC(=O)[C@@H](N)CC(C)C)CSC[C@@H](C(=O)N[C@H]2C(=O)N3CCC[C@H]3C(=O)NCC(=O)N[C@H](C(=O)N[C@@H](C)C(=O)N[C@@H](CC(N)=O)C(=O)N/C(=C\C)C(=O)NCC(=O)N[C@@H]3CSC[C@@H]4NC(=O)[C@H](Cc5ccc(O)cc5)NC(=O)[C@@H](CS/C=C\NC4=O)NC(=O)[C@H](CC(N)=O)NC(=O)[C@H](Cc4ccccc4)NC3=O)CS[C@H]2C)NC(=O)[C@H](CC(C)C)NC1=O` [OG712], for which, in data set [1] (2 Days at 37°C), the “Forced degradation Δ Conc” value is -4.6% and -5%; the “Forced degradation Δ Purity” value is -0.21%. Further, in data set [1] (2 Days at +50°C), the “Forced degradation Δ Conc” value was -8.7% and -9%; the “Forced degradation Δ Purity” value is listed as -3.01%. In data set [1] (7 Days at 37°C), the “Forced degradation Δ Conc” value was -9.3% and -9%; the “Forced degradation Δ Purity” value was -4.63%. For the same compound, the “Forced degradation Δ Conc” value in data set [1] (7 Days at +50°C) was -45.2% and -45%. In addition, in the data set on C. difficile, the “MIC 50” value is 0.25 µg/mL (≈ 0.114 µM), the “MIC 90” value stood at 0.5 µg/mL (≈ 0.228 µM), the “MIC Mode” value amounted to 0.25 µg/mL (≈ 0.114 µM) and the “MIC Range” value was in the range of 0.125 to 0.5 µg/mL. In the data set on C. difficile, this compound returned a Minimum Inhibitory Concentration C. difficile 103-1 of 0.125 µg/mL, a Minimum Inhibitory Concentration C. difficile 107-1 of 0.5 µg/mL, a Minimum Inhibitory Concentration C. difficile ATCC 9689 of 0.5 µg/mL and a Minimum Inhibitory Concentration C. difficile ATCC 43597 of 0.25 µg/mL. In the data set with C. difficile, this compound had a Minimum Inhibitory Concentration C. difficile ATCC BAA-1805 of 0.25 µg/mL, a Minimum Inhibitory Concentration C. difficile ATCC BAA-1808 of 0.25 µg/mL, a Minimum Inhibitory Concentration C. difficile ATCC BAA-1874 of 0.25 µg/mL and a Minimum Inhibitory Concentration C. difficile ATCC BAA-1875 of 0.5 µg/mL. In data set [2], the concentration in solution (solubility) came to 12 mg/mL (≈ 5480 µM).
As for `C=C1NC(=O)[C@H](Cc2c[nH]c3ccccc23)NC(=O)[C@H](NC(=O)[C@H](CCCCN)NC(=O)[C@@H](N)C(C)C)CSC[C@@H](C(=O)N[C@H]2C(=O)N3CCC[C@H]3C(=O)NCC(=O)N[C@H](C(=O)N[C@@H](C)C(=O)N[C@@H](CC(N)=O)C(=O)N/C(=C\C)C(=O)NCC(=O)N[C@@H]3CSC[C@@H]4NC(=O)[C@H](Cc5ccc(O)cc5)NC(=O)[C@@H](CS/C=C\NC4=O)NC(=O)[C@H](CC(N)=O)NC(=O)[C@H](Cc4ccccc4)NC3=O)CS[C@H]2C)NC(=O)[C@H](CC(C)C)NC1=O` [OG716], in data set [1] (2 Days at 37°C), the “Forced degradation Δ Conc” value is -7.4% and -7%; the “Forced degradation Δ Purity” value is on record as -0.31%. In data set [1] (2 Days at +50°C), the “Forced degradation Δ Conc” value was -16.9% and -17%; the “Forced degradation Δ Purity” value was -3.67%. Also, in data set [1] (7 Days at 37°C), the “Forced degradation Δ Conc” value was -14.8% and -15%; the “Forced degradation Δ Purity” value is on record as -5.20%. Further, in data set [1] (7 Days at +50°C), the “Forced degradation Δ Conc” value is given as -47% and the “Forced degradation Δ Purity” value is -19.77%. Also, in the data set on C. difficile, the “MIC 50” value is 0.25 µg/mL (≈ 0.115 µM), the “MIC 90” value came to 0.5 µg/mL (≈ 0.23 µM), the “MIC Mode” value came to 0.5 µg/mL (≈ 0.23 µM) and the “MIC Range” value lay in the range of 0.25 to 0.5 µg/mL. In the data set with C. difficile, this compound had a Minimum Inhibitory Concentration C. difficile 103-1 of 0.25 µg/mL, a Minimum Inhibitory Concentration C. difficile 107-1 of 0.5 µg/mL, a Minimum Inhibitory Concentration C. difficile ATCC 9689 of 0.5 µg/mL and a Minimum Inhibitory Concentration C. difficile ATCC 43597 of 0.25 µg/mL. Further, in the data set with C. difficile, the Minimum Inhibitory Concentration C. difficile ATCC BAA-1805 is 0.25 µg/mL, the Minimum Inhibitory Concentration C. difficile ATCC BAA-1808 worked out at 0.25 µg/mL, the Minimum Inhibitory Concentration C. difficile ATCC BAA-1874 was 0.5 µg/mL and the Minimum Inhibitory Concentration C. difficile ATCC BAA-1875 is 0.5 µg/mL. The same compound showed a solubility in data set [2] of 12 to 18 mg/mL (≈ 5520 to 8280 µM).
`C=C1NC(=O)[C@H](Cc2c[nH]c3ccccc23)NC(=O)[C@H](NC(=O)[C@H](CCCCN)NC(=O)[C@@H](N)CC(C)C)CSC[C@@H](C(=O)N[C@H]2C(=O)N3CCC[C@H]3C(=O)NCC(=O)N[C@H](C(=O)N[C@@H](C)C(=O)N[C@@H](CC(=O)O)C(=O)N/C(=C\C)C(=O)NCC(=O)N[C@@H]3CSC[C@@H]4NC(=O)[C@H](Cc5ccc(O)cc5)NC(=O)[C@@H](CS/C=C\NC4=O)NC(=O)[C@H](CC(N)=O)NC(=O)[C@H](Cc4ccccc4)NC3=O)CS[C@H]2C)NC(=O)[C@H](CC(C)C)NC1=O` [OG705]: in data set [1] (2 Days at 37°C), the “Forced degradation Δ Conc” value was -11.4% and -11%; the “Forced degradation Δ Purity” value is given as -0.29%. In data set [1] (2 Days at +50°C), the “Forced degradation Δ Conc” value is listed as -11% and the “Forced degradation Δ Purity” value was -1.32%. Further, in data set [1] (7 Days at 37°C), the “Forced degradation Δ Conc” value is -12.3% and -12%; the “Forced degradation Δ Purity” value is given as -0.61%. In addition, in data set [1] (7 Days at +50°C), the “Forced degradation Δ Conc” value is -26% and the “Forced degradation Δ Purity” value is given as -3.22%. For the same compound, in the data set with C. difficile, the “MIC 50” value was determined as 1 µg/mL (≈ 0.457 µM), the “MIC 90” value amounted to 2 µg/mL (≈ 0.913 µM), the “MIC Mode” value is 1 µg/mL (≈ 0.457 µM) and the “MIC Range” value was in the range of 0.5 to 2 µg/mL. In the data set on C. difficile, this compound returned a Minimum Inhibitory Concentration C. difficile 103-1 of 0.5 µg/mL, a Minimum Inhibitory Concentration C. difficile 107-1 of 2 µg/mL, a Minimum Inhibitory Concentration C. difficile ATCC 9689 of 1 µg/mL and a Minimum Inhibitory Concentration C. difficile ATCC 43597 of 1 µg/mL. Moreover, in the data set on C. difficile, the Minimum Inhibitory Concentration C. difficile ATCC BAA-1805 came to 1 µg/mL, the Minimum Inhibitory Concentration C. difficile ATCC BAA-1808 is 1 µg/mL, the Minimum Inhibitory Concentration C. difficile ATCC BAA-1874 was 1 µg/mL and the Minimum Inhibitory Concentration C. difficile ATCC BAA-1875 was determined as 1 µg/mL.
For `C=C1NC(=O)[C@H](Cc2c[nH]c3ccccc23)NC(=O)[C@H](NC(=O)[C@H](CCCCN)NC(=O)[C@@H](N)[C@@H](C)CC)CSC[C@@H](C(=O)N[C@H]2C(=O)N3CCC[C@H]3C(=O)NCC(=O)N[C@H](C(=O)N[C@@H](C)C(=O)N[C@@H](CC(N)=O)C(=O)N/C(=C\C)C(=O)NCC(=O)N[C@@H]3CSC[C@@H]4NC(=O)[C@H](Cc5ccccc5)NC(=O)[C@@H](CS/C=C\NC4=O)NC(=O)[C@H](CC(N)=O)NC(=O)[C@H](Cc4ccccc4)NC3=O)CS[C@H]2C)NC(=O)[C@H](CC(C)C)NC1=O` [OG718], in data set [1] (2 Days at 37°C), the “Forced degradation Δ Conc” value was -9.1% and -9%; the “Forced degradation Δ Purity” value was -2.07%. In data set [1] (2 Days at +50°C), the “Forced degradation Δ Conc” value is -29.4% and -29%; the “Forced degradation Δ Purity” value is on record as -4.90%. In addition, in data set [1] (7 Days at 37°C), the “Forced degradation Δ Conc” value is -21% and the “Forced degradation Δ Purity” value was -7.42%. Also, in data set [1] (7 Days at +50°C), the “Forced degradation Δ Conc” value was -43.8% and -44%; the “Forced degradation Δ Purity” value was -12.84%. For the same compound, in the data set with C. difficile, the “MIC 50” value worked out at 0.5 µg/mL (≈ 0.23 µM), the “MIC 90” value is 1 µg/mL (≈ 0.46 µM), the “MIC Mode” value worked out at 0.5 µg/mL (≈ 0.23 µM) and the “MIC Range” value lay within 0.25 to 1 µg/mL. For the same compound, in the data set with C. difficile, the Minimum Inhibitory Concentration C. difficile 103-1 came to 0.25 µg/mL, the Minimum Inhibitory Concentration C. difficile 107-1 came to 0.5 µg/mL, the Minimum Inhibitory Concentration C. difficile ATCC 9689 is 0.5 µg/mL and the Minimum Inhibitory Concentration C. difficile ATCC 43597 amounted to 0.5 µg/mL. In the data set with C. difficile, the Minimum Inhibitory Concentration C. difficile ATCC BAA-1805 was 0.5 µg/mL, the Minimum Inhibitory Concentration C. difficile ATCC BAA-1808 was 0.25 µg/mL, the Minimum Inhibitory Concentration C. difficile ATCC BAA-1874 was found to be 0.5 µg/mL and the Minimum Inhibitory Concentration C. difficile ATCC BAA-1875 amounted to 1 µg/mL. The solubility in data set [2] is over 24 mg/mL.
